# Experimental data reported in patent US6214805A, “RNase L activators and antisense oligonucleotides effective to treat RSV infections” (priority 1997, dated 2001).
# How the values were obtained:
# RSV strain A2 [1] = assay: Antiviral activity in Hep-2 cells, neutral red (reduction of RSV-induced CPE); assay type: cell-based, Respiratory syncytial virus
# Text: (§1) A comparison of the efficacies of spA4 -antiRSV3'3'T/(8281-8299) treatment and conventional ribarvirin treatment can be obtained by determining the RSV-inhibitory concentration and the cytotoxic concentration of each compound. Cultures of the human laryngeal carcinoma cell line HEp-2 and the […] renal cell line MA-104 were established and infected with an MOI=0.005. Cultures were fed twice daily. Treatment with either ribavirin or spA4 -antiRSV3'3'T/(8281-8299) was begun simultaneously with infection and continued for four days. Treatment was then withdrawn and the test read on day 5. The effects of treatment on RSV infection were reported as 1) an EC50, the concentration at which there was a 50% reduction in the observable cytopathic effects of infection and 2) an EC90, the concentration at which there was a 90% reduction in viral production. […] Therapeutic efficacy is estimated by the Selectivity Index, which is the ratio of IC50 /EC50.
# determined with RSV strain A2, MOI = 0.005
# (§2) Fresh medium and oligo or ribavirin added twice daily for 4 d and test read
# (§3) EC50 effective concentration to reduce RSV-induced CPE by 50%.
# Hep-2 Cells [2] = assay: Cytotoxicity to Hep-2 cells (visual and dye uptake, rapidly dividing cells); assay type: cell-based, human; details: Homo sapiens
# Text: as §1
# IC50 50% inhibitory concentration for cytotoxicity to cells (visual
# RSV strain A2 [3] = assay: Antiviral activity in MA-104 cells, visual CPE; assay type: cell-based, Respiratory syncytial virus
# Text: as §1
# (§4) as determined with RSV strain A2, MOI = 0.005
# as §2, §3
# RSV strain A2 [4] = assay: Virus yield reduction in MA-104 cells; assay type: cell-based, Respiratory syncytial virus; details: human respiratory syncytial virus, MA104, 96 h, RSV yield reduced by 90%, MOI = 0.005, added twice daily for 4 d
# Text: as §1, §4, §2
# EC90 effective concentration to reduce RSV yield by 90%.
# RSV strain A2 [5] = assay: Virus yield reduction assay in HEp-2 cells; assay type: cell-based, Respiratory syncytial virus; details: human respiratory syncytial virus, compound added twice daily
# Procedure: EC50 & EC90 : concentration required to reduce virus (RSV strain
# Both compounds were added to the cells twice daily.
# RSV strain A2 [6] = assay: CPE inhibition assay in HEp-2 cells; assay type: cell-based, Respiratory syncytial virus; details: for EC50: human respiratory syncytial virus
# Procedure: The CPE inhibition assay used in this study was performed as described by Sidwell and Huffman (Sidwell et al., 1971, Appl. Microbiol. 22:7979-7801) with slight modifications. Varying concentrations of test compounds were added to each plate containing near confluent cell monolayers (1×10^5 cells/well) followed immediately by the addition of virus at a multiplicity of infection (MOI)=0.01, and then incubated at 37° C. […] All compounds were assayed for virus inhibition in quadruplicate and for cytotoxicity in duplicate. For each compound, two wells were set aside as uninfected, untreated cell controls per test and four wells per test received virus only and represented controls for virus replication. […] For all CPE-based assays, the 50% effective concentration (EC50) was calculated by regression analysis using the means of the CPE ratings at each concentration of compound.
# Hep-2 Cells [7] = assay: Cytotoxicity by morphological changes in HEp-2 cells (CPE inhibition assay); assay type: cell-based, human; details: Homo sapiens
# Procedure: Embryonic African green monkey kidney cells (MA-104) were obtained from BioWhittaker, Inc. (Walkersville, Md.). HEp-2 cells were propagated from a human epidermoid carcinoma of the larynx (American Type Culture Collection, ATCC; Rockville, Md.). The cells were grown in minimal essential medium. (MEM, Gibco-BRL, Gaitherburg, Md.) supplemented with 0.1% NaHCO3 and 10% fetal bovine serum (FBS, Hyclone Laboratories, Logan Utah.). When performing antiviral assays, serum was reduced to 2% and 50 μg/ml gentamicin (Sigma Chemical Company, St. Louis, Mo.) was added to the medium.
# Morphological changes due to compound cytotoxicity were graded on a scale of 0-5; grade 5 was defined as 100% cytotoxicity. The 50% cytotoxic dose (IC50 was calculated by regression analysis. A selective index (S.I.) was calculated for each compound [S.I.=(IC50)/(EC50 ].
# RSV CH18537 (B) = assay: CPE inhibition assay in HEp-2 cells, RSV strain CH18537; assay type: cell-based, Respiratory syncytial virus; details: Table 12, CPE
# Procedure: (§5) The CPE inhibition assay used in this study was performed as described by Sidwell and Huffman (Sidwell et al., 1971, Appl. Microbiol. 22:7979-7801) with slight modifications. Varying concentrations of test compounds were added to each plate containing near confluent cell monolayers (1×10^5 cells/well) followed immediately by the addition of virus at a multiplicity of infection (MOI)=0.01, and then incubated at 37° C. On the following day, the medium from each plate was removed and fresh compound added. The assay was stopped at the end of the sixth day when the virus cytopathic effect in the virus infected, untreated control cells affected all cells. All compounds were assayed for virus inhibition in quadruplicate and for cytotoxicity in duplicate. For each compound, two wells were set aside as uninfected, untreated cell controls per test and four wells per test received virus only and represented controls for virus replication. […] For all CPE-based assays, the 50% effective concentration (EC50) was calculated by regression analysis using the means of the CPE ratings at each concentration of compound.
# (§6) In this series, MP351 was added once a day for two days with fresh medium
# [8] = test system: RSV 393 (clinical isolate); assay: CPE inhibition assay in HEp-2 cells, RSV 393; assay type: cell-based, Respiratory syncytial virus; details: Table 12, CPE
# Procedure: as §5, §6
# [9] = in vivo; cited from earlier work
# [10] = HEp-2, 24 h, Table 10, CPE, q.d. 1 day (added along with virus, never replenished), HEp2
# [11] = human respiratory syncytial virus, 48 h, once a day for two days
smiles,measurement,setting,value
NC(=O)c1ncn([C@@H]2O[C@H](CO)[C@@H](O)[C@H]2O)n1 [Ribavirin],SI selectivity index = IC50/EC50,RSV strain A2 [1],10
same,EC50,"RSV strain A2 [1]; human respiratory syncytial virus, 96 h, neutral red, MOI = 0.005, added twice daily for 4 d, read on d 5",4 µM
same,IC50,Hep-2 Cells [2],41 µM
same,SI selectivity index = IC50/EC50,RSV strain A2 [3],210
same,EC50,"RSV strain A2 [3]; human respiratory syncytial virus, MA104, 96 h, visual CPE, MOI = 0.005, added twice daily for 4 d, read on d 5",1 µM
same,SI selectivity index = IC50/EC50,RSV strain A2 [3]; listed as ribavirin,about 200
same,EC90,RSV strain A2 [4],7 µM
same,EC50,RSV strain A2 [5]; virus yield reduced by 50%,40 µM
same,EC90,RSV strain A2 [5]; virus yield reduced by 90%,80 µM
same,SI,"RSV strain A2 [6]; Table 10, CPE, B.I.D. 2 days, HEp2",> 57
same,SI,"RSV strain A2 [6]; Table 10, CPE, B.I.D. 3 days, HEp2",> 180
same,SI,"RSV strain A2 [6]; Table 10, CPE, B.I.D. 4 days, HEp2",57
same,SI,"RSV strain A2 [6]; Table 10, CPE, q.d. 1 day (added along with virus, never replenished), HEp2",57
same,SI,"RSV strain A2 [6]; Table 10, CPE, q.d. 3 days, HEp2",> 57
same,SI,"RSV strain A2 [6]; Table 10, CPE, q.d. 4 days, HEp2",> 57
same,SI,"RSV strain A2 [6]; Table 13, CPE, q.d., Day 0, HEp-2",30
same,SI,"RSV strain A2 [6]; Table 13, CPE, q.d., Day 1, HEp-2",8
same,SI,"RSV strain A2 [6]; Table 13, CPE, q.d., Day 2, HEp-2",80
same,EC50,"RSV strain A2 [6]; HEp-2, 0 h, Table 13, CPE, q.d., Day 0 (added immediately after virus exposure), HEp-2",12 µM
same,EC50,RSV strain A2 [6]; [10],4 µM
same,EC50,"RSV strain A2 [6]; HEp-2, 24 h, Table 13, CPE, q.d., fresh compound up to Day 1 post infection, HEp-2",4 µM
same,EC50,"RSV strain A2 [6]; HEp-2, 48 h, Table 10, CPE, B.I.D. 2 days, HEp2, read-out: EC50",< 4 µM
same,EC50,"RSV strain A2 [6]; HEp-2, 48 h, Table 13, CPE, q.d., fresh compound up to Day 2 post infection, HEp-2, read-out: EC50",4 µM
same,EC50,"RSV strain A2 [6]; HEp-2, 72 h, Table 10, CPE, B.I.D. 3 days, HEp2, read-out: EC50",< 4 µM
same,EC50,"RSV strain A2 [6]; HEp-2, 72 h, Table 10, CPE, q.d. 3 days, HEp2, read-out: EC50",< 4 µM
same,EC50,"RSV strain A2 [6]; HEp-2, 96 h, Table 10, CPE, B.I.D. 4 days, HEp2, read-out: EC50",4 µM
same,EC50,"RSV strain A2 [6]; HEp-2, 96 h, Table 10, CPE, q.d. 4 days, HEp2, read-out: EC50",< 4 µM
same,IC50,"Hep-2 Cells [7]; HEp-2, 0 h, Table 13, CPE, q.d., Day 0, HEp-2",240 µM
same,IC50,Hep-2 Cells [7]; [10],230 µM
same,IC50,"Hep-2 Cells [7]; HEp-2, 24 h, Table 13, CPE, q.d., Day 1, HEp-2",320 µM
same,IC50,"Hep-2 Cells [7]; HEp-2, 48 h, Table 10, CPE, B.I.D. 2 days, HEp2",230 µM
same,IC50,"Hep-2 Cells [7]; HEp-2, 48 h, Table 13, CPE, q.d., Day 2, HEp-2",320 µM
same,IC50,"Hep-2 Cells [7]; HEp-2, 72 h, Table 10, CPE, B.I.D. 3 days, HEp2",720 µM
same,IC50,"Hep-2 Cells [7]; HEp-2, 72 h, Table 10, CPE, q.d. 3 days, HEp2",230 µM
same,IC50,"Hep-2 Cells [7]; HEp-2, 96 h, Table 10, CPE, B.I.D. 4 days, HEp2",230 µM
same,IC50,"Hep-2 Cells [7]; HEp-2, 96 h, Table 10, CPE, q.d. 4 days, HEp2",230 µM
same,IC50,"Hep-2 Cells [7]; HEp-2, Table 12, CPE, test with 393 (clinical isolate), HEp-2",96 µM
same,IC50,"Hep-2 Cells [7]; HEp-2, Table 12, CPE, test with CH18537 (B), HEp-2",208 µM
same,IC50,"Hep-2 Cells [7]; HEp-2, Table 12, CPE, test with Long (A), HEp-2",205 µM
same,SI,RSV CH18537 (B),52
same,EC50,RSV CH18537 (B); [11],4 µM
same,SI,[8],24
same,EC50,[8]; [11],4 µM
same,half-life,[9],40 days
